Results from ChEMBL document CHEMBL5500412, “Discovery of Highly Selective, Potent, Covalent, and Orally Bioavailable Factor XIIa Inhibitors for the Treatment of Thrombo-Inflammation” (J Med Chem, 2024).
Calls of active or inactive are those of the source. No cut-off for these calls is given here.

Columns and labels:
Coagulation factor XII [1] = target: T1, Coagulation factor XII (Homo sapiens, UniProt P00748); experiment: Inhibition of FXIIa (unknown origin) using H-D-Pro-Phe-Arg-pNA as substrate incubated for 20 mins followed by substrate addition by spectrophotometric analysis
T1 sequence (P00748 whole entry): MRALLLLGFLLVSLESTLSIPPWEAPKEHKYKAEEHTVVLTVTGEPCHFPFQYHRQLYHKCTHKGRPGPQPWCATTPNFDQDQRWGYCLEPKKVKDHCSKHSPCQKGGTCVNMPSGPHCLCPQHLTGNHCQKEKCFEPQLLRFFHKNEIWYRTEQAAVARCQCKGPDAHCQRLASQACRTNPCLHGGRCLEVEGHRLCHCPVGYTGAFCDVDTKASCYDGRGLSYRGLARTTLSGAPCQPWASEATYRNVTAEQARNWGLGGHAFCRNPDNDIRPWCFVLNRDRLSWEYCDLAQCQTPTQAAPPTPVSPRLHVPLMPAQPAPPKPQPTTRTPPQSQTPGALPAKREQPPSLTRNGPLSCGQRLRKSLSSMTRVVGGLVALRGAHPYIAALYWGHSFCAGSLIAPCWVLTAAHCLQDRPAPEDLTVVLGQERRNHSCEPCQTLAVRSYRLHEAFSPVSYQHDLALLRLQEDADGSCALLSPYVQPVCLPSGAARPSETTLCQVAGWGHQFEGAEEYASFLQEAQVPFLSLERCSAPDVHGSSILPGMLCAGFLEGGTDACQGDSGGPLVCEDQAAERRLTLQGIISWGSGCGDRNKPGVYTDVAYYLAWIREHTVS

[2] = target: T2, Coagulation factor XII (Homo sapiens) (UniProt P00748); experiment: Inhibition of FXIIa (unknown origin) using H-D-Pro-Phe-Arg-pNA as substrate at 500 nM incubated for 20 mins followed by substrate addition by spectrophotometric analysis relative to control
T2 sequence (whole entry): T1 sequence (P00748 whole entry)

Coagulation factor XII [3] = target: T1, Coagulation factor XII; experiment: Inhibition of human FXIIa (unknown origin)
[4] = Selectivity index, ratio of IC50 for tPA (unknown origin) to IC50 for FXIIa (unknown origin)
[5] = Selectivity index, ratio of IC50 for trypsin (unknown origin) to IC50 for FXIIa (unknown origin)
[6] = Selectivity index, ratio of IC50 for chymotrypsin (unknown origin) to IC50 for FXIIa (unknown origin)
Trypsin = Trypsin (Homo sapiens, UniProt P07477+P07478+P35030); experiment: Inhibition of trypsin (unknown origin) using Bz-lle-Glu(gamma-OR)-Gly-Arg-pNA.HCl as chromogenic substrate incubated for 20 mins followed by substrate addition by spectrophotometric analysis; assay type: protein assay
Plasma kallikrein = Plasma kallikrein (Homo sapiens, UniProt P03952); experiment: Inhibition of PKal (unknown origin) using H-D-Pro-Phe-Arg-pNA-2HCl as substrate incubated for 20 mins followed by substrate addition by spectrophotometric analysis
RAW264.7 [7] = experiment: Antiinflammatory activity in mouse RAW264.7 cells assessed as inhibition of LPS-induced IL-1 beta expression at 10 uM preincubated for 12 hrs followed by LPS stimulation and measured after 12 hrs by real time quantitative RT-PCR assay; assay type: functional, cell-based; conditions: time 24.0 hrs
Prothrombin = Prothrombin (Homo sapiens, UniProt P00734); experiment: Inhibition of thrombin (unknown origin) using H-D-Phe-Pip-Arg-pNA-2HCl as substrate incubated for 20 mins followed by substrate addition by spectrophotometric analysis
[8] = target: Tissue-type plasminogen activator (Homo sapiens, UniProt P00750); experiment: Inhibition of tPA (unknown origin) using H-D-lle-Pro-Arg-pNA-2HCl as chromogenic substrate incubated for 20 mins followed by substrate addition by spectrophotometric analysis
RAW264.7 [9] = experiment: Antiinflammatory activity in mouse RAW264.7 cells assessed as inhibition of LPS-induced IL-6 expression at 10 uM preincubated for 12 hrs followed by LPS stimulation and measured after 12 hrs by real time quantitative RT-PCR assay; assay type: functional, cell-based; conditions: time 24.0 hrs
[10] = Selectivity index, ratio of IC50 for PKal (unknown origin) to IC50 for FXIIa (unknown origin)
Plasma [11] = experiment: Anticoagulant activity in human plasma assessed as prolongation of activated partial thromboplastin time at 300 uM incubated for 2 mins by aPTT reagent based assay relative to control; assay type: functional
[12] = Selectivity index, ratio of IC50 for plasmin (unknown origin) to IC50 for FXIIa (unknown origin)
[13] = Selectivity index, ratio of IC50 for FXIa (unknown origin) to IC50 for FXIIa (unknown origin)
Plasma [14] = experiment: Anticoagulant activity in human plasma assessed as prolongation of […] time at 300 uM incubated for 2 mins by PT reagent based assay; assay type: functional, cell-free
[15] = Selectivity index, ratio of IC50 for FXa (unknown origin) to IC50 for FXIIa (unknown origin)
[16] = Selectivity index, ratio of IC50 for thrombin (unknown origin) to IC50 for FXIIa (unknown origin)
Coagulation factor XI = Coagulation factor XI (Homo sapiens, UniProt P03951); experiment: Inhibition of FXIa (unknown origin) using p-Glu-Pro-Arg-pNA.HCl as chromogenic substrate incubated for 20 mins followed by substrate addition by spectrophotometric analysis
Plasminogen = Plasminogen (Homo sapiens, UniProt P00747); experiment: Inhibition of plasmin (unknown origin) using PyroGlu-Phe-Lys-pNA.HCl as chromogenic substrate incubated for 20 mins followed by substrate addition by spectrophotometric analysis
Coagulation factor X = Coagulation factor X (Homo sapiens, UniProt P00742); experiment: Inhibition of FXa (unknown origin) using Z-D-Arg-Gly-Arg-pNA.2HCl as chromogenic substrate incubated for 20 mins followed by substrate addition by spectrophotometric analysis
Chymotrypsin = Chymotrypsin (Homo sapiens, UniProt Q99895+P17538+P40313+Q6GPI1); experiment: Inhibition of Chymotrypsin (unknown origin) using N-Suc-Ala-Ala-Pro-Phe-pNA as chromogenic substrate incubated for 20 mins followed by substrate addition by spectrophotometric analysis; assay type: protein assay
[17] = Toxicity in BALB/c mouse assessed as prolongation of bleeding time at 30 mg/kg, po measured after 90 mins; assay type: organism-based; conditions: in vivo, 1.5 h

Chain of Plasminogen (P00747 97-580 limits assumed): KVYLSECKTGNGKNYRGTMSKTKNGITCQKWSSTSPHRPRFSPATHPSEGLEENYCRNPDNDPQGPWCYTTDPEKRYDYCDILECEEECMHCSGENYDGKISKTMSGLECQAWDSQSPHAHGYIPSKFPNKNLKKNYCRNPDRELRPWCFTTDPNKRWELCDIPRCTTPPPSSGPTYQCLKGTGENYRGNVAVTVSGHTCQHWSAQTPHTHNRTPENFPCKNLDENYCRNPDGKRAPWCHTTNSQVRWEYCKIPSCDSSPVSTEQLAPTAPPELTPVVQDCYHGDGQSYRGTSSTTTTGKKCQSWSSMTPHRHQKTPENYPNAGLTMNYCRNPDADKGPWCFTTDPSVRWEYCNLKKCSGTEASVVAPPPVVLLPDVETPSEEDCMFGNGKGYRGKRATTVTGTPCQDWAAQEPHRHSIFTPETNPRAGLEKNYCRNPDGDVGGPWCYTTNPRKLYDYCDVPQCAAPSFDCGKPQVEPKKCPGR
Chain of Plasminogen (P00747 581-810 limits assumed): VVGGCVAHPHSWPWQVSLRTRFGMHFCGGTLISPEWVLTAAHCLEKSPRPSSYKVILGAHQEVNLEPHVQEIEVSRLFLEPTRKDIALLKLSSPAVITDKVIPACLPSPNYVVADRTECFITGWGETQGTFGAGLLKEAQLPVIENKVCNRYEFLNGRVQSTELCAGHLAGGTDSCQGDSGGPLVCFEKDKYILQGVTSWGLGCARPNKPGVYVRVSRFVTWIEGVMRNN
Chain of Coagulation factor XI (P03951 19-387 limits assumed): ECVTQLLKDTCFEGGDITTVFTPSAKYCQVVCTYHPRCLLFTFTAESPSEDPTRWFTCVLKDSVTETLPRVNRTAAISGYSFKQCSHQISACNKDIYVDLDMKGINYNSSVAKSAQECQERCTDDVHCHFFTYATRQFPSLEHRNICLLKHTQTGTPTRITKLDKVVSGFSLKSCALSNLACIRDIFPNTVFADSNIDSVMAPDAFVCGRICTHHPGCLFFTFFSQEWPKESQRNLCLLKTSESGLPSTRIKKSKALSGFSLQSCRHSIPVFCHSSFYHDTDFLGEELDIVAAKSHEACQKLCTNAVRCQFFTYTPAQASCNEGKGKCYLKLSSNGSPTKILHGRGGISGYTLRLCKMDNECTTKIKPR
Chain of Coagulation factor XI (P03951 388-625 limits assumed): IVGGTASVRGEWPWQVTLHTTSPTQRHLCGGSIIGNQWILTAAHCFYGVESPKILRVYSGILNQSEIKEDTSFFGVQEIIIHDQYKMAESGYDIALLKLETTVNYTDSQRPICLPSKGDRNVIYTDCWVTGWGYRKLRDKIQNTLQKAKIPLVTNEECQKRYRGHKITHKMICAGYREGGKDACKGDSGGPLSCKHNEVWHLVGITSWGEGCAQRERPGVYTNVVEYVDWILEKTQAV
Chain of Plasma kallikrein (P03952 20-390 limits assumed): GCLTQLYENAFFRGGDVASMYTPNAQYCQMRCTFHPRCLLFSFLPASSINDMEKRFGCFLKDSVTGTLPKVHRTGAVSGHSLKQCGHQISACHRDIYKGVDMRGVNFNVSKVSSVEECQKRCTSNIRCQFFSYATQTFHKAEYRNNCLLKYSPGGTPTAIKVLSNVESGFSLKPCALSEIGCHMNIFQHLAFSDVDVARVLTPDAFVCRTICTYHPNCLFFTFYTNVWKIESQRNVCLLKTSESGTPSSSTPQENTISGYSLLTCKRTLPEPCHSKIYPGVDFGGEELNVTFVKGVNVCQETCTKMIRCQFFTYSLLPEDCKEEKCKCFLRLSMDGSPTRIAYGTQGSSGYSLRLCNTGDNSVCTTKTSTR
Chain of Plasma kallikrein (P03952 391-638 limits assumed): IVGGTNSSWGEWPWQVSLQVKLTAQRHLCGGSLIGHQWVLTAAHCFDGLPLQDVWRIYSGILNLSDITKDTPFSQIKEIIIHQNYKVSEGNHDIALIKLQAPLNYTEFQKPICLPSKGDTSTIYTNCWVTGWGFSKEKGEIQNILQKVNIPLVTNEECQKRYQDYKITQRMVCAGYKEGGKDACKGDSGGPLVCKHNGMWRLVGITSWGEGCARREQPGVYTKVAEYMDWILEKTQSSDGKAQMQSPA
Chain of Tissue-type plasminogen activator (P00750 whole entry): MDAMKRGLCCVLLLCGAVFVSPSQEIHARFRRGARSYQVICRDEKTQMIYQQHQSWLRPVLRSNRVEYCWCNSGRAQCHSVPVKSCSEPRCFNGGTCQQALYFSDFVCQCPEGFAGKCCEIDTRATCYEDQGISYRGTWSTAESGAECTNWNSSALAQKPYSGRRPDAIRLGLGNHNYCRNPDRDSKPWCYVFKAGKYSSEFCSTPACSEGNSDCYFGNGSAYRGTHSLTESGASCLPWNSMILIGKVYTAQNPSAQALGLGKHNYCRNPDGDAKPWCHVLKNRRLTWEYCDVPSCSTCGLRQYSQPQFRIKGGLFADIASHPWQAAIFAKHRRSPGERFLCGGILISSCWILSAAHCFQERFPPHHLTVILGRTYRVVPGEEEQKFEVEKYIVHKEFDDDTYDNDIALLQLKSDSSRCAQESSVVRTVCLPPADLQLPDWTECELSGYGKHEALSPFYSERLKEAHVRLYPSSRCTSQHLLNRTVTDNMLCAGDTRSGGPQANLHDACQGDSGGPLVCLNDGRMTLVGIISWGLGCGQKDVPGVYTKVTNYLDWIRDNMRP
Chain of Coagulation factor X (P00742 41-179 limits assumed): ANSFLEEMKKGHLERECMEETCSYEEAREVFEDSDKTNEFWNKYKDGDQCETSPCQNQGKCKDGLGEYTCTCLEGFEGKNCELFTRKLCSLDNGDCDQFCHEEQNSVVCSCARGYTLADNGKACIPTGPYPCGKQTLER
Chain of Coagulation factor X (P00742 235-488 limits assumed): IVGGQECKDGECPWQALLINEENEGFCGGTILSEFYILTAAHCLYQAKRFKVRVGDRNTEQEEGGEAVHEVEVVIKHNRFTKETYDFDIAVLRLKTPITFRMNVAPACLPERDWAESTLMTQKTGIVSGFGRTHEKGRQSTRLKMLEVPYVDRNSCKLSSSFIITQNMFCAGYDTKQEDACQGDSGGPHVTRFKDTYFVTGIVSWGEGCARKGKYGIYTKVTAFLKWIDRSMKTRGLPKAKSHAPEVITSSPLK

Row | IC50 (Coagulation factor XII [1]) [nM] | inhibition [2] [%] | SMILES | further results
1 | 195 | 71 | CN1CCN(c2ccc(C(=O)n3nc(-c4ccncc4)nc3N)cc2)CC1 | –
2 | 81 | 77 | CC(C)N1CCN(c2ccc(C(=O)n3nc(-c4ccc(Cl)cn4)nc3N)cc2)CC1 | –
3 | – | 65 | COCCN1CCN(c2ccc(C(=O)n3nc(-c4ccccn4)nc3N)cc2)CC1 | –
4 | 50 | – | Nc1nc(-c2ccccn2)nn1C(=O)c1ccc(N2CCN(C3CCCC3)CC2)c2ccccc12 | –
5 | – | – | Cc1cc(N2CCn3c(nnc3C(F)(F)F)[C@@H]2C)ncc1CNc1cccc2c(N)nccc12 | IC50 (Coagulation factor XII [3]): 10 nM
6 | 51 | – | CC(C)N1CCN(c2ccc(C(=O)n3nc(-c4ccccn4)nc3N)c3c2OCCO3)CC1 | –
7 | 39 | – | Nc1nc(-c2ccccn2)nn1C(=O)c1ccc(N2CCN(C3COC3)CC2)c2ccccc12 | Ratio IC50 [4]: > 640; Ratio IC50 [5]: > 640; Ratio IC50 [6]: > 640; IC50 (Trypsin): > 25000 nM; IC50 (Plasma kallikrein): > 25000 nM; Activity (RAW264.7 [7]): Active; IC50 (Prothrombin): 20000 nM; IC50 [8]: > 25000 nM; Activity (RAW264.7 [9]): Active; Ratio IC50 [10]: > 640; Activity (Plasma [11]): 472%; Ratio IC50 [12]: > 640; Ratio IC50 [13]: > 640; Activity (Plasma [14]): inactive; Ratio IC50 [15]: > 640; Ratio IC50 [16]: 830; IC50 (Coagulation factor XI): > 25000 nM; IC50 (Plasminogen): > 25000 nM; IC50 (Coagulation factor X): > 25000 nM; IC50 (Chymotrypsin): > 25000 nM
8 | 86 | – | CN(C)C(=O)N1CCN(c2ccc(C(=O)n3nc(-c4ccccn4)nc3N)c3ccccc23)CC1 | –
9 | – | 39 | Nc1nc(-c2ccccn2)nn1C(=O)c1ccc(NCc2ccccc2)cc1 | –
10 | 56 | – | Nc1nc(-c2ccccn2)nn1C(=O)c1ccc(N2CCN(C3CCCCC3)CC2)c2ccccc12 | –
11 | – | – | Nc1nccc2c(NCC34COC(COc5ccn6ccnc6c5)(C3)C4)cccc12 | IC50 (Coagulation factor XII [3]): 100 nM
12 | – | 33 | Nc1nc(-c2ccccn2)nn1C(=O)c1ccc(NC(=O)[C@@H](CC2CCCCC2)NC2CCCCC2)cc1 | –
13 | 95 | – | CC(C)S(=O)(=O)N1CCN(c2ccc(C(=O)n3nc(-c4ccccn4)nc3N)c3ccccc23)CC1 | –
14 | – | 43 | COc1cc(C(=O)n2nc(-c3ccccn3)nc2N)ccc1N1CCN(C(C)C)CC1 | –
15 | 72 | 79 | CC(C)N1CCN(c2ccc(C(=O)n3nc(-c4ccccn4)nc3N)cc2)CC1 | –
16 | – | 9 | Nc1nc(-c2ccccn2)nn1C(=O)c1ccc(NC(=O)c2ccccc2)c(F)c1 | –
17 | – | 28 | Cc1cc(C(=O)n2nc(-c3ccccn3)nc2N)cc(C)c1N1CCN(C(C)C)CC1 | –
18 | 190 | 72 | CN(C)CCN(C)c1ccc(C(=O)n2nc(-c3ccccn3)nc2N)cc1 | –
19 | 180 | 72 | CN1CCN(c2ccc(C(=O)n3nc(-c4ccccn4)nc3N)cc2)CC1 | –

Row | IC50 (Coagulation factor XII [1]) [nM] | inhibition [2] [%] | SMILES | further results
20 | 40 | – | Nc1nc(-c2ccccn2)nn1C(=O)c1ccc(N2CCN(C3CC3)CC2)c2ccccc12 | –
21 | – | 63 | Nc1nc(-c2ccccn2)nn1C(=O)c1ccc(N2CCN(CCO)CC2)cc1 | –
22 | – | 34 | CN1CCC(c2ccc(C(=O)n3nc(-c4ccccn4)nc3N)cc2)CC1 | –
23 | 202 | 70 | Nc1nc(-c2ccccn2)nn1C(=O)c1ccc(N2CCC3(CC2)OCCO3)cc1 | –
24 | – | 62 | Nc1nc(-c2ccccn2)nn1C(=O)c1ccc(NC(=O)c2cccc3c2CCCC3)cc1 | –
25 | – | 60 | Nc1nc(-c2ccccn2)nn1C(=O)c1ccc(NC(=O)c2cccc3ccccc23)cc1 | –
26 | – | – | O=C(NC[C@H]1CN(c2ccc(N3CCOCC3=O)cc2)C(=O)O1)c1ccc(Cl)s1 [RIVAROXABAN] | Activity [17]: Toxic
27 | 48 | 82 | Cc1cc(C(=O)n2nc(-c3ccccn3)nc2N)ccc1N1CCN(C(C)C)CC1 | Activity (RAW264.7 [7]): Active; Activity (RAW264.7 [9]): Active
28 | – | 28 | CC(C)C[C@@H](NC1CCCC1)C(=O)Nc1ccc(C(=O)n2nc(-c3ccccn3)nc2N)cc1 | –
29 | 79 | 79 | CC(C)N1CCN(c2ccc(C(=O)n3nc(-c4ccc(F)cn4)nc3N)cc2)CC1 | Activity (RAW264.7 [7]): Active; Activity (RAW264.7 [9]): Active
30 | – | 21 | CN1CCN(c2cccc(C(=O)n3nc(-c4ccccn4)nc3N)c2)CC1 | –
31 | 163 | 74 | Nc1nc(-c2ccccn2)nn1C(=O)c1ccc(NC(=O)c2ccccc2)cc1 | Ratio IC50 [4]: > 30; Ratio IC50 [5]: > 30; Ratio IC50 [6]: > 30; IC50 (Trypsin): > 5000 nM; IC50 (Plasma kallikrein): > 25000 nM; IC50 (Prothrombin): 15700 nM; IC50 [8]: > 5000 nM; Ratio IC50 [10]: > 150; Activity (Plasma [11]): 35%; Ratio IC50 [12]: > 30; Ratio IC50 [13]: > 150; Ratio IC50 [15]: > 30; Ratio IC50 [16]: 770; IC50 (Coagulation factor XI): > 25000 nM; IC50 (Plasminogen): > 5000 nM; IC50 (Chymotrypsin): > 5000 nM
32 | – | 40 | Nc1nc(-c2ccccn2)nn1C(=O)c1cccc(N2CCC3(CC2)OCCO3)c1 | –
33 | – | 24 | Nc1nc(-c2ccccn2)nn1C(=O)c1ccc(NC(=O)[C@@H](Cc2ccccc2)NC2CCCCC2)cc1 | –
34 | – | 62 | Nc1nc(-c2ccccn2)nn1C(=O)c1ccc(NC(=O)c2cccc3c2OCCO3)cc1 | –
35 | – | 28 | Nc1nc(-c2ccccn2)nn1C(=O)c1ccc(NC(=O)c2ccccc2)cc1F | –
36 | – | 57 | CN1CCN(c2ccc(C(=O)n3nc(-c4cccnc4)nc3N)cc2)CC1 | –
37 | – | 21 | Nc1nc(-c2ccccn2)nn1C(=O)c1ccc(N2CCC3(CC2)CC3)cc1 | –

Row | SMILES | IC50 (Coagulation factor XII [1]) [nM] | inhibition [2] [%] | further results
38 | CN1CC=C(c2ccc(C(=O)n3nc(-c4ccccn4)nc3N)cc2)CC1 | – | 40 | –
